# Source: patent publication US5430031A, “Serotoninergic ergoline derivatives” (Farmitalia Carlo Erba S.r.l., priority 1992, dated 1995)
# pIC50: −log10 of the molar value. Read-outs that look alike come from different tables or passages of the source.
# Legend:
# [1] = target: serotonin 2 (5-HT2) receptor (Rattus norvegicus, UniProt P14842); assay: 5-HT2 receptor affinity, 3H-Ketanserin binding test (Experiment 2)
# Protocol: Experiment 2: affinity for serotonin 2(5-HT2)receptor (^3 H-Ketanserin binding test).
# The suspension was centrifuged at 40,000×g for 20 minutes at 0° C. again. The resulting pellet was homogenized in 100 volumes of the above buffer and provided as synaptosome membranes solution for the next assay.
# To the aliquots (900μ) of synaptosome membranes solution were added 50 μl solution of ^3 H-Ketanserin solution at the terminal concentration of 0.2 mM and 50 μl of test compound or its medium, and incubated at 37° C. for 20 minutes. After completion of the reaction, the mixture was rapidly vacuum-filtered through Whatman® GF/B filters. The filters were washed three times with 5 ml of the above buffer, and then the radioactivity of the residue remaining on the filters was measured by liquid scintillation counter. Non specific binding was determined under the presence of 10 μM of mianserin.
# [2] = target: T1, dopamine 2 (D2) receptor (Rattus norvegicus, UniProt P61169); assay: D2 receptor affinity, 3H-Spiperone binding test (Experiment 3); conditions: 3H-Spiperone 0.2 nM, corpus striatum, 37° C., 20 minutes; read-out: RECEPTOR BINDING I-C50 D2
# T1 construct: Freezed corpus striatum dissected out from rats were homogenized; from tissue; host or cells: rat corpus striatum, crude synaptosome membranes
# T1 sequence (P61169 whole entry): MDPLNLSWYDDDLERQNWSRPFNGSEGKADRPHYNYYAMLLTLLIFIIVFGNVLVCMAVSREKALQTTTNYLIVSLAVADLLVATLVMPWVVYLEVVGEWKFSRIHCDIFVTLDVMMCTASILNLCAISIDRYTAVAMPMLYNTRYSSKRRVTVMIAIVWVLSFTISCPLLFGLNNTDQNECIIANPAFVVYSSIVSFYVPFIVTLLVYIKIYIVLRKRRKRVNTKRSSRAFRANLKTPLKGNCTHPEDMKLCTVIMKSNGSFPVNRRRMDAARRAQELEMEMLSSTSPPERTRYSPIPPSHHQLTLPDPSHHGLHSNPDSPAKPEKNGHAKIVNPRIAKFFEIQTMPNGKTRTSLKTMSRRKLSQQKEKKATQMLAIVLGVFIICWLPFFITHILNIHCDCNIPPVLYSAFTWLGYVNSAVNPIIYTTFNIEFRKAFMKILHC
# Protocol: Experiment 3: affinity for dopamine 2 (D2)receptor (^3 H-Spiperone binding test.)
# The resulting pellet was homogenized in 150 volumes of 50 mM Tris-HCl buffer (PH 7.1) containing 120 mM potassium chloride, 2 mM calcium chloride, 1 mM magnesium chloride, 0,1% ascorbic acid and 10 μM pargyline. The suspension was incubated at 37° C. for 10 minutes and then provided as synaptosome membranes solution for the next assays.
# To the aliquots (900μ) of synaptosome membranes solution were added 50 μl of ^3 H-Spiperone solution at the terminal concentration of 0.2 nM and 50 μl of test compound solution or 50 μl of its medium, and incubated at 37° C. for 20 minutes. After completion of the reaction, the mixture was rapidly vacuum-filtered through Whatman® GF/B filters. The filters were washed three times with 5 ml of the above buffer, and then the radioactivity of the residue remaining on the filters was measured by liquid scintillation counter.
# [3] = target: T2, serotonin 1A (5-HT1A) receptor (Rattus norvegicus, UniProt P19327); assay: 5-HT1A receptor affinity, 3H-8-OH-DPAT binding test (Experiment 1)
# T2 construct: Freezed hippocampus dissected out from rats were homogenized; from tissue; host or cells: rat hippocampus, crude synaptosome membranes
# T2 sequence (P19327 1-422): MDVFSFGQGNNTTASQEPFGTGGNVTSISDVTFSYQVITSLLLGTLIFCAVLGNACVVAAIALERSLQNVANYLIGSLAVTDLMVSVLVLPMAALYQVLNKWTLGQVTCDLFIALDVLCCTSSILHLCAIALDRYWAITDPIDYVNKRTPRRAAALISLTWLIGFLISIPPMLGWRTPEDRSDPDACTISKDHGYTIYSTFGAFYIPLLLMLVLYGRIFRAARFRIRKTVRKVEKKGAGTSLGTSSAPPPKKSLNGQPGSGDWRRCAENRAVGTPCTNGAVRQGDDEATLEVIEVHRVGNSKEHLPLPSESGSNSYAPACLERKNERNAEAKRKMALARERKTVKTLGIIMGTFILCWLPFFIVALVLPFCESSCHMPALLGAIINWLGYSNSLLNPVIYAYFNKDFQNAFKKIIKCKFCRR
# Protocol: Experiment 1: affinity for serotonin 1A (5-HT1A) receptor [^3 H-8-Hydroxy-2-dipropylaminotetralin (^3 H-8-OH-DPAT)binding test]
# After completion of reaction, the suspension was centrifuged at 40,000×g for 20 minutes at 0° C.
# Then to the mixture was added 5 ml of ice-cold 50 mM Tris-CHI buffer (pH 7.4) rapidly vacuum-filtered through Whatman® GF/B filters and was washed twice with 5 ml of the same buffer. The radioactivity of the residue remaining on the filters was measured by liquid scintillation counter. Nonspecific binding was determined under the presence of 10^-5 M serotonin (5-HT).
# [4] = test system: group-caged mice; assay: stress-induced hyperthermia, screening model of anxiety; format: in vivo; conditions: Mouse, ip
# Source text: This procedure is based upon the antagonism of an increase in rectal temperature observed in group-caged mice as they are being removed from their cohorts.
# Chain of serotonin 2 (5-HT2) receptor (P14842 whole entry): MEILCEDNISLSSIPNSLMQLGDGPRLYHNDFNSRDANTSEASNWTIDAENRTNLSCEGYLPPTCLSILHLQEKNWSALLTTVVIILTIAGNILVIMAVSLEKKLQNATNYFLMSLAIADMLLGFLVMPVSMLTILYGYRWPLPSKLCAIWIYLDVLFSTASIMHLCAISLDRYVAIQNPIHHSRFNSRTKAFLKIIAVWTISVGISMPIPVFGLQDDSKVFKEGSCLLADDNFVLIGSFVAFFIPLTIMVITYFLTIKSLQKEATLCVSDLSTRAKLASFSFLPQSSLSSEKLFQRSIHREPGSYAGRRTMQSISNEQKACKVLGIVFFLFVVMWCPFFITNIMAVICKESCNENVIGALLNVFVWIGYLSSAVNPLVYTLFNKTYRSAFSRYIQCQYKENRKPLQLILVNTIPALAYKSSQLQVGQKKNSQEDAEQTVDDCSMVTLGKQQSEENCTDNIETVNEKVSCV
Compound,pIC50 [1],pIC50 [2],pIC50 [3],ED50 [4],"pIC50 ([1]; read-out: RECEPTOR BINDING I-C50 5-HT2, 3H-Ketanserin 0.2 mM (so in the source), rat cerebral cortex, 37° C., 20 minutes)","pIC50 ([3]; read-out: RECEPTOR BINDING I-C50 5-HT1A, 3H-8-OH-DPAT 0.2 nM, rat hippocampus, 37° C., 10 minutes)"
"COC(=O)[C@@H]1C[C@@H]2c3cc(C(C)(C)C)cc4[nH]cc(c34)C[C@H]2N(C)C1 [Example 2, 6-Methyl-8β-methoxycarbonyl-13-t-butyl-ergoline]",5.73,5.56,8.00,,,
"CN1C[C@H](CO)C[C@@H]2c3cc(C(C)(C)C)cc4[nH]cc(c34)C[C@H]21 [Example 3, 6-Methyl-8β-hydroxymethyl-13-t-butyl-ergoline]",5.96,5.35,8.00,,,
"CN1C[C@H](CNC(=O)c2ccncc2)C[C@@H]2c3cc(C(C)(C)C)cc4[nH]cc(c34)C[C@H]21 [Example 8, 6-Methyl-8β-isonicotinoylaminomethyl-13-t-butyl-ergoline]",5.68,5.54,7.10,,,
"CN1CC(CNC(=O)Cc2ccccc2)CC2c3cc(C(C)(C)C)cc4[nH]cc(c34)CC21 (stereo not drawn) [Example 6, 6-Methyl-8β.phenylacetylaminomethyl-13-t-butyl-ergoline]",6.15,5.90,8.10,0.06 mg/kg,,
"CN1C[C@H](CNC(=O)C(C)(C)C)C[C@@H]2c3cc(C(C)(C)C)cc4[nH]cc(c34)C[C@H]21 [Example 7, 6-Methyl-8β-pivaloylaminomethyl-13-t-butyl-ergoline]",5.92,5.29,8.00,0.06 mg/kg,,
"CN1C[C@H](CN)C[C@@H]2c3cc(C(C)(C)C)cc4[nH]cc(c34)C[C@H]21 [Example 4, 6-Methyl-8β-aminomethyl-13-t-butyl-ergoline]",6.15,5.48,8.00,,,
"COC(=O)C1CC2c3cc(C(C)(C)C)cc4[nH]c(SC)c(c34)CC2N(C)C1 (stereo not drawn) [Example 1, 2-Thiomethyl-6-methyl-8β-methoxycarbonyl (13,14)-t-butyl-ergoline]",,5.28,,,5.17,7.52
"CCOC(=O)NC[C@@H]1C[C@@H]2c3cc(C(C)(C)C)cc4[nH]cc(c34)C[C@H]2N(C)C1 [Example 11, 6-Methyl-8β-ethoxycarbonylaminomethyl-13-t-butyl-ergoline]",5.46,5.51,7.30,0.06 mg/kg,,
"CN1C[C@H](CNC(=O)c2cncc(Br)c2)C[C@@H]2c3cc(C(C)(C)C)cc4[nH]cc(c34)C[C@H]21 [Example 9, 6-methyl-8β-(5-bromo-nicotinoyl)aminomethyl-13-t-butyl-ergoline]",5.96,5.68,8.00,0.03 mg/kg,,
"Cc1nc(C(=O)NCC2CC3c4cc(C(C)(C)C)cc5[nH]cc(c45)CC3N(C)C2)cs1 (stereo not drawn) [Example 17, 6-Methyl-8β-(2-methyl-4-thiazoyl)aminomethyl-13-t-butyl-ergoline]",,,,0.06 mg/kg,,
"CN1C[C@H](CNC(=O)Nc2ccccc2)C[C@@H]2c3cc(C(C)(C)C)cc4[nH]cc(c34)C[C@H]21 [Example 12, 6-Methyl-8β-phenylaminocarbonylaminomethyl-13-t-butyl-ergoline]",5.21,5.68,8.00,,,
"Cc1cc(C(=O)NCC2CC3c4cc(C(C)(C)C)cc5[nH]cc(c45)CC3N(C)C2)nn1C (stereo not drawn) [Example 16, 6-Methyl-8β-(1,5-dimethyl-3-pyrazoyl)aminomethyl-13-t-butyl-ergoline]",,,,0.06 mg/kg,,
"CN1C[C@H](CNC(=O)C2CCCCC2)C[C@@H]2c3cc(C(C)(C)C)cc4[nH]cc(c34)C[C@H]21 [Example 13, 6-Methyl-8β-cyclohexylcarbonylaminomethyl-13-t-butyl-ergoline]",5.96,5.77,8.30,,,
